Source: patent US10752587B2, “Homobispiperidinyl derivatives as liver X receptor beta agonists, compositions and their use” (Merck Sharp & Dohme Corp., priority 2015, dated 2020)
pEC50: −log10 of the molar value. Like-named read-outs stand apart in the source and are kept apart here.

Tests used:
[1] = target: T1, glutathione-S-transferase (GST) tagged LXRbeta LBD (ligand binding domain) (Homo sapiens, UniProt P55055); experiment: LanthaScreen TR-FRET Liver X Receptor Coactivator Assay, co-activator recruitment to LXRbeta LBD; assay type: biochemical
T1 construct: purchased Invitrogen pv4658.pps
T1 sequence (P55055 222-460 limits assumed): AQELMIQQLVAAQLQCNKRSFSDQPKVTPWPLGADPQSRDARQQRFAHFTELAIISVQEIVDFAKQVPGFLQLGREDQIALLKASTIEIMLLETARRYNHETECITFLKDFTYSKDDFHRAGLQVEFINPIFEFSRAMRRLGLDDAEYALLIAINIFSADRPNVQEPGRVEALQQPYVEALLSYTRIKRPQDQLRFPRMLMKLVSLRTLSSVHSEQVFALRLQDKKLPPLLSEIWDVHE
Method in brief: (§1)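 TR-FRET coactivator recruitment; compound + LBD, then fluorescein-coactivator peptide/Tb-anti-GST Ab mix; RT incubation; IP and Emax vs T0901317.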

[2] = target: T2, glutathione-S-transferase (GST) tagged LXRalpha LBD (ligand binding domain) (Homo sapiens, UniProt Q13133); experiment: LanthaScreen TR-FRET Liver X Receptor Coactivator Assay, co-activator recruitment to LXRalpha LBD; assay type: biochemical; details: for pEC50 / LXR alpha IP (nM): potency (Inflection Point, IP), co-activator recruitment to LXRalpha LBD, in relation to T0901317; for pEC50: read-out: LXR alpha IP
T2 construct: purchased Invitrogen pv4655
T2 sequence (Q13133 209-447 limits assumed): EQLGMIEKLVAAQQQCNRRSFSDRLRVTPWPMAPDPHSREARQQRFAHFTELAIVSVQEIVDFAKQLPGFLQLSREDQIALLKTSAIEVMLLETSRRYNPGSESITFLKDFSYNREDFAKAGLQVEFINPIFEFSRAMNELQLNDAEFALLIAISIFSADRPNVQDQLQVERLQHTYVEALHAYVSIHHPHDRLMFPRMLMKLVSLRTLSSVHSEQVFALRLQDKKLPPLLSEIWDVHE
Method in brief: as §1

[3] = efficacy at max dose, in relation to reference dual agonist T0901317, read-out: LXR beta Activity @ max dose (%)
[4] = potency (Inflection Point, IP), co-activator recruitment to LXRbeta LBD, in relation to T0901317, read-out: LXR beta IP
[5] = efficacy at max dose, in relation to reference dual agonist T0901317, read-out: LXR alpha Activity @ max dose (%)

| Structure (SMILES) | Emax [1, 3] | pEC50 [1, 4] | Emax [2, 5] | pEC50 [2] | LXR alpha IP (nM) [2] | pEC50 ([1]; co-activator recruitment to GST-LXRbeta LBD, TR-FRET, read-out: LXR beta IP (Inflection Point, potency)) | Emax ([1]; efficacy in relation to reference dual agonist T0901317, read-out: LXR beta Activity @ max dose) | LXR alpha IP (Inflection Point, potency) ([2]; co-activator recruitment to GST-LXRalpha LBD, TR-FRET) | Emax ([2]; efficacy in relation to reference dual agonist T0901317, read-out: LXR alpha Activity @ max dose) |
| --- | --- | --- | --- | --- | --- | --- | --- | --- | --- |
| CNC(=O)c1ccc(N2CCC(CC3CCN(C(=O)[C@](O)(c4cccc(OC(C)C)c4)C(F)(F)F)CC3)CC2)nc1Cl [Example 7-136, 2-chloro-N-methyl-6-{4-[(1-{(2R)-3,3,3-trifluoro-2-hydroxy-2-[3-(1-methylethoxy)phenyl]propanoyl}piperidin-4-yl)methyl]piperidin-1-yl}pyridine-3-carboxamide] | 86% | 7.85 | 6% | – | NO IP | – | – | – | – |
| Cc1cc(Cl)cc([C@@](O)(C(=O)N2CCC(CC3CCN(c4ccc(C(=O)N(C)C)c(Cl)c4)CC3)CC2)C(F)(F)F)c1 [Example 2-111, 2-chloro-4-[4-({1-[(2R)-2-(3-chloro-5-methylphenyl)-3,3,3-trifluoro-2-hydroxy-propanoyl]piperidin-4-yl}methyl)piperidin-1-yl]-N,N-dimethyl-benzamide] | 28% | 8.15 | 0% | – | NO IP | – | – | – | – |
| CCOc1cccc([C@@](O)(C(=O)N2CC(CC3CCN(c4ccc(C(=O)N(C)C)c(Cl)n4)CC3)C2)C(F)(F)F)c1 [Example 7-44, 2-chloro-6-[4-({1-[(2R)-2-(3-ethoxyphenyl)-3,3,3-trifluoro-2-hydroxypropanoyl]azetidin-3-yl}methyl)piperidin-1-yl]-N,N-dimethylpyridine-3-carboxamide] | 75% | 7.47 | 8% | – | NO IP | – | – | – | – |
| Cc1cc(N2CCC(CC3(C)CCN(C(=O)[C@](O)(c4cccc(Cl)c4)C(F)(F)F)CC3)CC2)ccc1C(=O)N(C)C [Example 2-76, 4-[4-({1-[(2R)-2-(3-chloro-phenyl)-3,3,3-trifluoro-2-hydroxy-propanoyl]-4-methylpiperidin-4-yl}methyl)piperidin-1-yl]-N,N,2-trimethyl-benzamide] | 46% | 7.85 | 4% | – | NO IP | – | – | – | – |
| COc1cccc([C@@](O)(C(=O)N2CCC(C)(CC3CCN(c4ccc(C(=O)N(C)C)c(Cl)c4)CC3)CC2)C(F)(F)F)c1 [Example 2-45, 2-chloro-N,N-dimethyl-4-[4-({4-methyl-1-[(2R)-3,3,3-trifluoro-2-hydroxy-2-(3-methoxyphenyl)propanoyl]piperidin-4-yl}methyl)piperidin-1-yl]benzamide] | 18% | 8.15 | 0% | – | NO IP | – | – | – | – |
| COc1cccc([C@@](O)(C(=O)N2CCC(CC3CCN(c4ccc(C(=O)N(C)C)c(C)n4)CC3)CC2)C(F)(F)F)c1 [Example 7-5, N,N,2-trimethyl-6-[4-({1-[(2R)-3,3,3-trifluoro-2-hydroxy-2-(3-methoxyphenyl)propanoyl]piperidin-4-yl}methyl)piperidin-1-yl]pyridine-3-carboxamide] | 69% | 7.60 | 8% | – | NO IP | – | – | – | – |
| CNC(=O)c1ccc(N2CCC(CC3CCN(C(=O)[C@](O)(c4cccc(C)c4)C(F)(F)F)CC3)CC2)nc1Cl [Example 7-151, 2-chloro-N-methyl-6-[4-({1-[(2R)-3,3,3-trifluoro-2-hydroxy-2-(3-methylphenyl)propanoyl]piperidin-4-yl}methyl)piperidin-1-yl]pyridine-3-carboxamide] | 81% | 8.15 | 34% | 6.92 | – | – | – | – | – |
| CCOc1cccc([C@@](O)(C(=O)N2CCC(CC3CCN(c4ccc(C(N)=O)c(Cl)c4)CC3)CC2)C(F)(F)F)c1 [Example 12-8, 2-chloro-4-[4-({1-[(2R)-2-(3-ethoxyphenyl)-3,3,3-trifluoro-2-hydroxypropanoyl]-piperidin-4-yl}methyl)-piperidin-1-yl]-benzamide] | – | – | – | – | – | 8.40 | 46% | NO IP | 12% |
| CN(Cc1ccon1)C(=O)c1ccc(N2CCC(OC3CCN(C(=O)[C@](O)(c4ccccc4)C(F)(F)F)CC3)CC2)cc1Cl [Example 4-15, 2-chloro-N-(isoxazol-3-yl-methyl)-N-methyl-4-[4-({1-[(2R)-3,3,3-trifluoro-2-hydroxy-2-phenylpropanoyl]piperidin-4-yl}oxy)piperidin-1-yl]benzamide] | 87% | 7.42 | 40% | 5.89 | – | – | – | – | – |
| CC(C)Oc1cccc(C(O)(C(=O)N2CCC(CC3CCN(c4ccc(C(=O)N(C)C)c(Cl)n4)CC3)CC2)C(F)(F)F)c1 (stereo not drawn) [Example 7-76, 2-chloro-N,N-dimethyl-6-{4-[(1-{3,3,3-trifluoro-2-hydroxy-2-[3-(1-methylethoxy)phenyl]propanoyl}piperidin-4-yl)methyl]piperidin-1-yl}pyridine-3-carboxamide] | 56% | 8.00 | 10% | – | NO IP | – | – | – | – |

Further molecules by rising pEC50 [1, 4], results first:

| Emax [1, 3] | pEC50 [1, 4] | Emax [2, 5] | pEC50 [2] | LXR alpha IP (nM) [2] | pEC50 ([1]; co-activator recruitment to GST-LXRbeta LBD, TR-FRET, read-out: LXR beta IP (Inflection Point, potency)) | Emax ([1]; efficacy in relation to reference dual agonist T0901317, read-out: LXR beta Activity @ max dose) | LXR alpha IP (Inflection Point, potency) ([2]; co-activator recruitment to GST-LXRalpha LBD, TR-FRET) | Emax ([2]; efficacy in relation to reference dual agonist T0901317, read-out: LXR alpha Activity @ max dose) | Structure (SMILES) |
| --- | --- | --- | --- | --- | --- | --- | --- | --- | --- |
| 107% | 6.53 | 39% | 5.57 | – | – | – | – | – | CC(C)C(O)(C(=O)N1CCC(CC2CCN(c3ccc(C(=O)N(C)C)c(Cl)n3)CC2)CC1)C(F)(F)F (stereo not drawn) [Example 7-59, 2-chloro-6-[4-({1-[2-hydroxy-3-methyl-2-(trifluoromethyl)butanoyl]piperidin-4-yl}methyl)piperidin-1-yl]-N,N-dimethylpyridine-3-carboxamide] |
| 119% | 7.09 | 31% | 5.87 | – | – | – | – | – | CN(C)C(=O)c1ccc(N2CCC(CC3CCN(C(=O)[C@@](O)(c4ccccc4)C(F)(F)F)CC3)CC2)nc1Cl [Example 7-62, 2-chloro-N,N-dimethyl-6-[4-({1-[(2S)-3,3,3-trifluoro-2-hydroxy-2-phenylpropanoyl]piperidin-4-yl}methyl)piperidin-1-yl]pyridine-3-carboxamide] |
| 51% | 7.13 | 12% | – | NO IP | – | – | – | – | CCc1cccc([C@@](O)(C(=O)N2CCC(CC3CCN(c4ccc(C(=O)N(C)C)cc4)CC3)CC2)C(F)(F)F)c1 [Example 2-141, 4-[4-({1-[(2R)-2-(3-ethyl-phenyl)-3,3,3-trifluoro-2-hydroxy-propanoyl]piperidin-4-yl}methyl)piperidin-1-yl]-N,N-dimethyl-benzamide] |
| 67% | 7.31 | 15% | 6.24 | – | – | – | – | – | Cc1ccsc1C(O)(C(=O)N1CCC(CC2CCN(c3ccc(C(=O)N(C)C)c(Cl)c3)CC2)CC1)C(F)(F)F (stereo not drawn) [Example 2-38, 2-chloro-N,N-dimethyl-4-[4-({1-[3,3,3-trifluoro-2-hydroxy-2-(3-methyl-thiophen-2-yl)propanoyl]piperidin-4-yl}methyl)piperidin-1-yl]benzamide] |
| 79% | 7.43 | 24% | 6.13 | – | – | – | – | – | CNC(=O)c1ccc(N2CCC(CC3CCN(C(=O)[C@](O)(c4cccc(OC(F)(F)F)c4)C(F)(F)F)CC3)CC2)cc1Cl [Example 7-125, 2-chloro-N-methyl-4-{4-[(1-{(2R)-3,3,3-trifluoro-2-hydroxy-2-[3-(trifluoromethoxy)phenyl]propanoyl}piperidin-4-yl)methyl]piperidin-1-yl}benzamide] |
| 84% | 7.62 | 42% | 6.59 | – | – | – | – | – | CNC(=O)c1ccc(N2CCC(CC3CCN(C(=O)[C@](O)(c4cccc(C(F)(F)F)c4)C(F)(F)F)CC3)CC2)nc1Cl [Example 7-150, 2-chloro-N-methyl-6-{4-[(1-{(2R)-3,3,3-trifluoro-2-hydroxy-2-[3-(trifluoromethyl)phenyl]propanoyl}piperidin-4-yl)methyl]piperidin-1-yl}pyridine-3-carboxamide] |
| 56% | 7.92 | 3% | – | NO IP | – | – | – | – | CCOc1cccc([C@@](O)(C(=O)N2CCC(CC3CCN(c4ccc(C(=O)N(C)C)c(Cl)c4)CC3)CC2)C(F)(F)F)c1 [Example 2-92, 2-chloro-4-[4-({1-[(2R)-2-(3-ethoxyphenyl)-3,3,3-trifluoro-2-hydroxy-propanoyl]piperidin-4-yl}methyl)piperidin-1-yl]-N,N-dimethyl-benzamide] |
| 123% | 8.22 | 66% | 7.08 | – | – | – | – | – | CNC(=O)c1ccc(N2CCC(CC3CCN(C(=O)C(O)(c4cc(F)cc(F)c4)C(F)(F)F)CC3)CC2)nc1Cl (stereo not drawn) [Example 7-133, 2-chloro-6-[4-({1-[2-(3,5-difluorophenyl)-3,3,3-trifluoro-2-hydroxypropanoyl]piperidin-4-yl}methyl)piperidin-1-yl]-N-methylpyridine-3-carboxamide] |
